Data from the supplement of paper PMC10307832.

Key:
Experiment in all cases: relative viability (nuclei count vs DMSO), 5 days (fraction); higher = more cells survive
NCI-H1755 = system: NCI-H1755
Method in brief: (§1)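 Lung cancer cell lines, seeded in 1536-well plates, were treated the following day by pin tool with a single drug or with five library-drug doses (not always all listed) in √10 steps on top of a fixed anchor-drug dose. Cells were fixed and nuclei stained in one step after 5 days, and nuclei were counted. Relative viability is the nuclei count for treated wells divided by that for vehicle wells, reported as medians of duplicate plates.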

SK-LU-1 = system: SK-LU-1
Method in brief: as §1

201T = system: 201T
Method in brief: as §1

LU99A = system: LU99A
Method in brief: as §1

EKVX = system: EKVX
Method in brief: as §1

COR-L23 = system: COR-L23
Method in brief: as §1

LC-2-ad = system: LC-2-ad
Method in brief: as §1

NCI-H596 = system: NCI-H596
Method in brief: as §1

HCC-366 = system: HCC-366
Method in brief: as §1

NCI-H3122 = system: NCI-H3122
Method in brief: as §1

BEN = system: BEN
Method in brief: as §1

LXF-289 = system: LXF-289
Method in brief: as §1

NCI-H1650 = system: NCI-H1650
Method in brief: as §1

RERF-LC-KJ = system: RERF-LC-KJ
Method in brief: as §1

HCC-78 = system: HCC-78
Method in brief: as §1

HCC-15 = system: HCC-15
Method in brief: as §1

NCI-H1944 = system: NCI-H1944
Method in brief: as §1

NCI-H1734 = system: NCI-H1734
Method in brief: as §1

HARA = system: HARA
Method in brief: as §1

NCI-H1993 = system: NCI-H1993
Method in brief: as §1

HCC-827 = system: HCC-827
Method in brief: as §1

NCI-H1975 = system: NCI-H1975
Method in brief: as §1

COR-L 105 = system: COR-L 105
Method in brief: as §1

O=C(O)CCCCC(CCSCc1ccccc1)SCc1ccccc1 (centres undefined) [CPI-613] + COc1cccc2cc(-c3nc([C@H]4CC[C@H](C(=O)O)CC4)n4ncnc(N)c34)[nH]c12 [OSI-027] (partner 0.5 µM)
relative viability (NCI-H1755; first compound 5 µM): 0.693
relative viability (NCI-H1755; first compound 15.81 µM): 0.687
relative viability (NCI-H1755; first compound 50 µM): 0.66
relative viability (NCI-H1755; first compound 158.11 µM): 0.504
relative viability (NCI-H1755; first compound 500 µM): 0.207
relative viability (SK-LU-1; first compound 5 µM): 0.285
relative viability (SK-LU-1; first compound 15.81 µM): 0.26
relative viability (SK-LU-1; first compound 50 µM): 0.296
relative viability (SK-LU-1; first compound 158.11 µM): 0.152
relative viability (SK-LU-1; first compound 500 µM): 0.0346
relative viability (201T; first compound 5 µM): 0.754
relative viability (201T; first compound 15.81 µM): 0.711
relative viability (201T; first compound 50 µM): 0.606
relative viability (201T; first compound 158.11 µM): 0.678
relative viability (201T; first compound 500 µM): 0.818
relative viability (LU99A; first compound 5 µM): 0.29
relative viability (LU99A; first compound 15.81 µM): 0.279
relative viability (LU99A; first compound 50 µM): 0.262
relative viability (LU99A; first compound 158.11 µM): 0.24
relative viability (LU99A; first compound 500 µM): 0.0972
relative viability (EKVX; first compound 5 µM): 0.631
relative viability (EKVX; first compound 15.81 µM): 0.624
relative viability (EKVX; first compound 50 µM): 0.718
relative viability (EKVX; first compound 158.11 µM): 0.673
relative viability (EKVX; first compound 500 µM): 0.693
relative viability (COR-L23; first compound 5 µM): 0.738
relative viability (COR-L23; first compound 15.81 µM): 0.584
relative viability (COR-L23; first compound 50 µM): 0.562
relative viability (COR-L23; first compound 158.11 µM): 0.169
relative viability (COR-L23; first compound 500 µM): 0.0278
relative viability (LC-2-ad; first compound 5 µM): 0.893
relative viability (LC-2-ad; first compound 15.81 µM): 0.744
relative viability (LC-2-ad; first compound 50 µM): 0.8
relative viability (LC-2-ad; first compound 158.11 µM): 0.505
relative viability (LC-2-ad; first compound 500 µM): 0.0505
relative viability (NCI-H596; first compound 5 µM): 0.673
relative viability (NCI-H596; first compound 15.81 µM): 0.623
relative viability (NCI-H596; first compound 50 µM): 0.832
relative viability (NCI-H596; first compound 158.11 µM): 0.489
relative viability (NCI-H596; first compound 500 µM): 0.0755
relative viability (HCC-366; first compound 5 µM): 0.924
relative viability (HCC-366; first compound 15.81 µM): 0.787
relative viability (HCC-366; first compound 50 µM): 1.08
relative viability (HCC-366; first compound 158.11 µM): 0.244
relative viability (HCC-366; first compound 500 µM): 0.0116
relative viability (NCI-H3122; first compound 5 µM): 0.9
relative viability (NCI-H3122; first compound 15.81 µM): 0.876
relative viability (NCI-H3122; first compound 50 µM): 0.7
relative viability (NCI-H3122; first compound 158.11 µM): 0.39
relative viability (NCI-H3122; first compound 500 µM): 0.045
relative viability (BEN; first compound 5 µM): 0.289
relative viability (BEN; first compound 15.81 µM): 0.298
relative viability (BEN; first compound 50 µM): 0.304
relative viability (BEN; first compound 158.11 µM): 0.265
relative viability (BEN; first compound 500 µM): 0.28
relative viability (LXF-289; first compound 5 µM): 0.788
relative viability (LXF-289; first compound 15.81 µM): 0.694
relative viability (LXF-289; first compound 50 µM): 0.733
relative viability (LXF-289; first compound 158.11 µM): 0.404
relative viability (LXF-289; first compound 500 µM): 0.0382
relative viability (NCI-H1650; first compound 5 µM): 0.592
relative viability (NCI-H1650; first compound 15.81 µM): 0.566
relative viability (NCI-H1650; first compound 50 µM): 0.58
relative viability (NCI-H1650; first compound 158.11 µM): 0.14
relative viability (NCI-H1650; first compound 500 µM): 0.0159
relative viability (RERF-LC-KJ; first compound 5 µM): 0.553
relative viability (RERF-LC-KJ; first compound 15.81 µM): 0.491
relative viability (RERF-LC-KJ; first compound 50 µM): 0.513
relative viability (RERF-LC-KJ; first compound 158.11 µM): 0.114
relative viability (RERF-LC-KJ; first compound 500 µM): 0.0544
relative viability (HCC-78; first compound 5 µM): 0.351
relative viability (HCC-78; first compound 15.81 µM): 0.377
relative viability (HCC-78; first compound 50 µM): 0.373
relative viability (HCC-78; first compound 158.11 µM): 0.351
relative viability (HCC-78; first compound 500 µM): 0.4
relative viability (HCC-15; first compound 5 µM): 0.552
relative viability (HCC-15; first compound 15.81 µM): 0.602
relative viability (HCC-15; first compound 50 µM): 0.586
relative viability (HCC-15; first compound 158.11 µM): 0.364
relative viability (HCC-15; first compound 500 µM): 0.0388
relative viability (NCI-H1944; first compound 5 µM): 0.391
relative viability (NCI-H1944; first compound 15.81 µM): 0.388
relative viability (NCI-H1944; first compound 50 µM): 0.351
relative viability (NCI-H1944; first compound 158.11 µM): 0.274
relative viability (NCI-H1944; first compound 500 µM): 0.0492
relative viability (NCI-H1734; first compound 5 µM): 0.58
relative viability (NCI-H1734; first compound 15.81 µM): 0.55
relative viability (NCI-H1734; first compound 50 µM): 0.571
relative viability (NCI-H1734; first compound 158.11 µM): 0.325
relative viability (NCI-H1734; first compound 500 µM): 0.1
relative viability (HARA; first compound 15.81 µM): 0.482
relative viability (HARA; first compound 50 µM): 0.387
relative viability (HARA; first compound 158.11 µM): 0.188
relative viability (HARA; first compound 500 µM): 0.0367
relative viability (NCI-H1993; first compound 5 µM): 0.531
relative viability (NCI-H1993; first compound 15.81 µM): 0.572
relative viability (NCI-H1993; first compound 50 µM): 0.567
relative viability (NCI-H1993; first compound 158.11 µM): 0.46
relative viability (NCI-H1993; first compound 500 µM): 0.375
relative viability (HCC-827; first compound 5 µM): 0.745
relative viability (HCC-827; first compound 15.81 µM): 0.717
relative viability (HCC-827; first compound 50 µM): 0.673
relative viability (HCC-827; first compound 158.11 µM): 0.431
relative viability (HCC-827; first compound 500 µM): 0.48
relative viability (NCI-H1975; first compound 5 µM): 0.693
relative viability (NCI-H1975; first compound 15.81 µM): 0.589
relative viability (NCI-H1975; first compound 50 µM): 0.741
relative viability (NCI-H1975; first compound 158.11 µM): 0.245
relative viability (NCI-H1975; first compound 500 µM): 0.0526
relative viability (COR-L 105; first compound 5 µM): 0.605
relative viability (COR-L 105; first compound 15.81 µM): 0.407
relative viability (COR-L 105; first compound 50 µM): 0.49
relative viability (COR-L 105; first compound 158.11 µM): 0.319
relative viability (COR-L 105; first compound 500 µM): 0.105
